Test results reported in US8268306B2, “Pesticidal and antiparasitic compositions” (Centro de Ingenieria Genetica y Biotecnologia, priority 2001, dated 2012).

Legend:
[1] = test system: Haemonchus spp; assay: In vitro nematicidal effect of hydrogen sulfide and chitinase, egg hatching; format: cell-based; conditions: Haemonchus eggs, emerging larvae after 24 hours; fraction E = 1 − Ntto/Nc; mean of 4 replicas
Procedure: (§1) Eggs from zoonematodes Haemonchus spp and Trichostrongylus colubriformis and Dictyocaulus viviparus were used, as well as parasitic phytonematode larvae (juveniles 2) from Melodoigyne incognita.
(§2) Collections of Haemonchus spp and Trichostrongylus colubriformis nematodes were made from ovine (sheep) and bovine (cattle) abomasa, respectively. The adult female nematodes were washed in a physiological solution and treated with “Hibitane” (Chlorhexidine Acetate) at 0.5%, for 1 minute, the process developed at 37° C. Approximately 100 previously disinfected individuals were introduced into an Erlenmeyer containing 50 ml of LB medium solution, diluted 10 times in distilled sterile water, and were left laying their eggs overnight (8-10 hours).
(§3) From that moment on, manipulation was done under aseptic conditions in a vertical laminar flow, using 24-well tissue culture plates. The total volume of the medium that contained the females and the eggs was filtered with a sift net of 60 μm. The nematode eggs were trapped on the 30 μm net of a second sifts. It was introduced into a Hibitane solution at 0.5% for 3 minutes, followed by three washes with LB medium diluted 10 times in sterile distilled water.
(§4) Once disinfected, the eggs were removed from the sift and were carefully resuspended with a LB medium solution diluted 10 times in sterile distilled water. The final result of the distribution was checked by counting and registering the eggs in each well with an inverted Olympus microscope, observations of the uniformity of the evolutionary state in this phase were made too.
(§5) The Haemonchus spp and T. colubriformis' eggs hatch between 24 and 48 hours of incubation at 28° C., whereas the D. vivparus' eggs hatch before 24 hours. A good sample preparation is accomplished when in all the untreated controls more than 60% of hatching occurs in the previously foreseen times for each species.
(§6) The nematode's eggs and larvae were placed in a number of 100 individuals in approximately 2 ml of LB medium diluted 10 times. This volume was introduced into safety valves that allow the air to go through the liquid and, therefore, the gasses make contact with the eggs and larvae. Every valve was a replica for each treatment.
(§7) The hydrogen sulfide was obtained by a reaction against the chloride acid of two sulfide salts (Na2S and FeS), and from an anaerobial fermentation of bacterium Desulfovibrio desulfuricans subs. desulfuricans ATCC 27774 (isolated from an ovine rumen). The chitinolytic enzyme used was chitinase SIGMA C 1650, from bacterium Serratia marcescens.
(§8) The nematode's eggs and larvae under the study were subjected to the following treatments for 24 hours:
(§9) 1. Control treatment: chitinase not applied, and air circulated through the valve.
(§10) 2. Chitinase treatment: chitinase at a rate of 0.2 units per replica.
(§11) 3. Sulfide treatment: hydrogen sulfide from Na2S with a 0.2 flux at 0.3 mg/minute.
(§12) 4. Sulfide treatment: hydrogen sulfide from FeS with a 0.2 flux at 0.3 mg/minute.
(§13) 5. Sulfide treatment: hydrogen sulfide from Desulfovibrio desulfuricans with a 0.2 flux at 0.3 mg/minute.
(§14) 6. Combined treatment: simultaneous application of treatments 2 and 3.
(§15) 7. Combined treatment: simultaneous application of treatments 2 and 4.
(§16) 8. Combined treatment: simultaneous application of treatments 2 and 5.
(§17) All the above treatments had 4 replicas.
(§18) Twenty-four hours after starting the experiment the emerging larvae (Haemonchus sp., T. colubriformis and D. viviparous) and the number of live larvae (Melodogyne incognita) in all the treatments, were counted. This value is the mean of the 4 replicas in every treatment. The variance analysis (ANOVA) was applied to the results obtained in each nematode species in the study, separately; the Duncan test (Lerch G. 1977. La Experimentación en las ciencias biológicas y agrícolas. 1^ra edición, p.p. 203-308, Editorial Científico-Técnica, La Habana) was applied, which is also shown in table 1. […]

[2] = test system: Trichostrongylus colubriformis; assay: as above; format: cell-based; conditions: Trichostrongilus eggs, emerging larvae after 24 hours; fraction E = 1 − Ntto/Nc; mean of 4 replicas
Procedure: as §1, §2, §3, §4, §5, §6, §7, §8, §9, §10, §11, §12, §13, §14, §15, §16, §17, §18

[3] = test system: Dictyocaulus viviparus; assay: as above; format: cell-based; conditions: Dictyocaulus eggs, emerging larvae after 24 hours; fraction E = 1 − Ntto/Nc; mean of 4 replicas
Procedure: as §1
Collections of D. viviparous nematode were made from the infested lung of a bovine (cattle), previously sacrificed. The same procedure was used for Haemochus spp. and T. colubriformis; however, the females were allowed to lay their eggs for 2-3 hours.
as §3, §4, §5
The nematode's eggs and larvae were placed in a number of 100 individuals in approximately 2 ml of LB medium diluted 10 times. This volume was introduced into safety valves that allow the air to go through the liquid and, therefore, the gasses make contact with the eggs and larvae. […]
(§19) Twenty-four hours after starting the experiment the emerging larvae (Haemonchus sp., T. colubriformis and D. viviparous) and the number of live larvae (Melodogyne incognita) in all the treatments, were counted. […]

[4] = test system: Melodoigyne incognita; assay: In vitro nematicidal effect of hydrogen sulfide and chitinase, live larvae (juveniles 2); format: cell-based, Meloidogyne incognita; conditions: Meloidogyne larvae, live larvae after 24 hours; fraction E = 1 − Ntto/Nc; mean of 4 replicas
Procedure: as §1
The collection of egg mass of Meloidogyne incognita was performed from squash roots (Cucurbita pepo), previously infested and cultivated in greenhouses. For this operation a stereoscope microscope and needles with properly altered tips were used. The masses were put in sterile distilled water in Petri dishes at 28° C., in a number of 50 masses per dish. Daily observations were made to check egg hatching. In approximately 72 hours, there were enough larvae to start collecting and disinfecting.
The total volume of water containing the egg masses and the larvae were filtered through a sift net of 60 μm. From that moment on all the manipulation was done under aseptic conditions in a vertical laminar flow, using 24-well tissue culture plates. The eggs detached from the mass were unable to hatch and remained on the sift net of 30 μm; the larvae were collected with a further net of 5 μm. It was introduced into a Hibitane solution at 0.5% for 3 minutes followed by 3 washes with LB medium diluted 10 times in sterile distilled water. Once disinfected, the Meloidogyne incognita larvae were removed from the sift net and carefully resuspended with a LB medium solution diluted 10 times in sterile distilled water. The final collecting and disinfecting results were checked by counting and registering the live larvae with an inverted Olympus microscope.
as §6, with “treatment. […]” for “treatment.”
as §19

S [3. Esn, hydrogen sulfide]
Treatment effectiveness (E) [1]: 0.41
Treatment effectiveness (E) [2]: 0.40
Treatment effectiveness (E) [3]: 0.44
Treatment effectiveness (E) [4]: 0.51

S [4. Esf, hydrogen sulfide]
Treatment effectiveness (E) [1]: 0.40
Treatment effectiveness (E) [2]: 0.39
Treatment effectiveness (E) [3]: 0.42
Treatment effectiveness (E) [4]: 0.52

S [5. Esd, hydrogen sulfide]
Treatment effectiveness (E) [1]: 0.37
Treatment effectiveness (E) [2]: 0.38
Treatment effectiveness (E) [3]: 0.40
Treatment effectiveness (E) [4]: 0.47
